Eleven compounds from patent US9850283B2, “Macrocyclic inhibitors of the PD-1/PD-L1 and CD80(B7-1)/PD-L1 protein/protein interactions” (BRISTOL-MYERS SQUIBB COMPANY, priority 2013, dated 2017) can be followed below.

The IC50 is the midpoint of a concentration-inhibition curve.

Assay [1] concerns the target T1, LK35.2-hPD-L1 cells / PE-labeled PD-1-Ig (Homo sapiens, UniProt Q9NZQ7).
T1 construct: expressed in transfected cells; host or cells: LK35.2 mouse B cell line
Kind of assay: LK35.2-hPD-L1 cell binding high-content screening assay. The format is cell-based. The settings on record: cluster symbol, read-out: CBA IC50 cluster. In a few lines: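 Using overnight-cultured LK35.2-hPD-L1 mouse B cells, compound was co-incubated with phycoerythrin-tagged human PD-1-Ig (final 1 nM) at 37 °C for one hour. Unbound label was removed by triple dPBS washing prior to high-content image acquisition and analysis.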

A further assay deals with T2, Human PD-L1/PD-1 (Homo sapiens, UniProt Q9NZQ7).
T2 construct: made in house; host or cells: HEK293T
T2 sequence (Q9NZQ7 with tags, fused parts or gaps): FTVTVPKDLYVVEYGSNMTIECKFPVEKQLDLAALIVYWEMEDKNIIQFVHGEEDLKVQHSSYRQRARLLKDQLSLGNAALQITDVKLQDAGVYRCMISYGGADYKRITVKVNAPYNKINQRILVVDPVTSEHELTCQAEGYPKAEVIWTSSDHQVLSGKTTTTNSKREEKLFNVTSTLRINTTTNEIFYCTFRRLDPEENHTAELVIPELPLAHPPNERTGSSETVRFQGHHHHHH
Kind of assay: HTRF PD-1-Ig/PD-L1-His binding assay (human PD-L1). The settings on record: cluster symbol; read-out: HTRF IC50 cluster. Put shortly:
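Readout: time-resolved FRET between Eu cryptate-labeled anti-Ig (1 nM final) and APC-labeled anti-His (20 nM final) antibodies. These detect interaction of Fc-fused PD-1 with His-tagged human PD-L1 in dPBS containing 0.1% BSA and 0.05% Tween-20.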

The mark [2] stands for this setting: cell binding assay, cell line not given.
Where [3] appears, read: cell line of CBA not given (LK35.2-hPD-L1 or 293T-hPD-L1).

Like-named read-outs stand apart in the source and are kept apart here. Positions of bridges follow the written chain, without caps; N, C: chain ends. Non-standard residues stand in square brackets, D forms with d. Residues, ends and D or L forms follow the SMILES beside them. ξ: configuration not given here. *: point of attachment. Bip = N[C@@H](Cc1ccc(-c2ccccc2)cc1)C(=O)O; Bta = N[C@@H](Cc1csc2ccccc12)C(=O)O; Cyclobutanecarbonyl = O=C(C1CCC1)*; Hyp = O=C(O)[C@@H]1C[C@@H](O)CN1; NMeF = CN[C@@H](Cc1ccccc1)C(=O)O; NMeNle = CCCC[C@H](NC)C(=O)O; NMeM = CN[C@@H](CCSC)C(=O)O; Pip = O=C(O)[C@@H]1CCCCN1; NMeA = CN[C@@H](C)C(=O)O; Orn = NCCC[C@H](N)C(=O)O; Dab = NCC[C@H](N)C(=O)O; Dap = NC[C@H](N)C(=O)O; ξC = NC(CS)C(=O)O; Sar = CNCC(=O)O

T1 sequence (Q9NZQ7 19-290): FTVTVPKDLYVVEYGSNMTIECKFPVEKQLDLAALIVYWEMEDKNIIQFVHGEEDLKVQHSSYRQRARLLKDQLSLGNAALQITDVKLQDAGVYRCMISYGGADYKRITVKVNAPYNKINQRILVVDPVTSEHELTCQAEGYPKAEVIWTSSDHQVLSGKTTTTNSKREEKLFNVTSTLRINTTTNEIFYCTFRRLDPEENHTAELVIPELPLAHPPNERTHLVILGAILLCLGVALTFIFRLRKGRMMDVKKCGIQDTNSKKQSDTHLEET

Consider `CCCC[C@H]1C(=O)N(C)[C@@H](CCCC)C(=O)N[C@@H](CCCNC(=N)N)C(=O)N[C@H](C(=O)NCC(N)=O)CSCC(=O)N[C@@H](Cc2ccccc2)C(=O)N(C)[C@@H](C)C(=O)N[C@@H](CO)C(=O)N2CCC[C@H]2C(=O)N[C@@H](Cc2cnc[nH]2)C(=O)N[C@@H](CC(C)C)C(=O)N(C)CC(=O)N[C@@H](Cc2c[nH]c3ccccc23)C(=O)N[C@@H](CO)C(=O)N[C@@H](Cc2c[nH]c3ccccc23)C(=O)N1C` [Example 5019] ({CH2CO}-F[NMeA]SPHL[Sar]WSW[NMeNle][NMeNle]RCG-NH2; thioether N-14), for which the IC50 fell in the range of 4.78 to 72.9 nM in assay [1] (setting [2]) and 6.76 to 30.3 nM at Human PD-L1/PD-1.

As for `CCCC[C@H]1C(=O)N(C)[C@@H](CCCC)C(=O)N[C@@H](CCCN)C(=O)N[C@H](C(=O)NCC(N)=O)CSCC(=O)N[C@@H](Cc2ccc(O)cc2)C(=O)N2CCCC[C@H]2C(=O)N[C@@H](CC(N)=O)C(=O)N2CCC[C@H]2C(=O)N[C@@H](Cc2cnc[nH]2)C(=O)N[C@@H](CCC(=O)O)C(=O)N2C[C@H](O)C[C@H]2C(=O)N[C@@H](Cc2c[nH]c3ccccc23)C(=O)N[C@@H](CO)C(=O)N[C@@H](Cc2c[nH]c3ccccc23)C(=O)N1C` [Example 1234] ({CH2CO}-Y[Pip]NPHE[Hyp]WSW[NMeNle][NMeNle][Orn]CG-NH2; thioether N-14), the IC50 in assay [1] (setting [3]) lay within 0.158 to 4.71 nM; on Human PD-L1/PD-1 it was 6.76 to 30.3 nM.

Consider `CCCC[C@H]1C(=O)N(C)[C@@H](CCCC)C(=O)N[C@@H](CCCNC(=N)N)C(=O)NC(C(=O)N[C@@H](CO)C(N)=O)CSCC(=O)N[C@@H](Cc2ccc(O)cc2)C(=O)N(C)[C@@H](C)C(=O)N[C@@H](CC(N)=O)C(=O)N2CCC[C@H]2C(=O)N[C@@H](Cc2cnc[nH]2)C(=O)N[C@@H](CO)C(=O)N2C[C@H](O)C[C@H]2C(=O)N[C@@H](Cc2c[nH]c3ccccc23)C(=O)N[C@@H](CO)C(=O)N[C@@H](Cc2c[nH]c3ccccc23)C(=O)N1C` (stereo partly shown) [Example 9079] ({CH2CO}-Y[NMeA]NPHS[Hyp]WSW[NMeNle][NMeNle]R[ξC]S-NH2; thioether N-14), for which the IC50 in assay [1] (setting [2]) lay within 4.78 to 72.9 nM; on Human PD-L1/PD-1, 0.385 to 6.74 nM.

On to `CCCC[C@H]1C(=O)N(C)[C@@H](CCCC)C(=O)N[C@@H](CCCNC(=N)N)C(=O)N[C@H](C(=O)NCC(N)=O)CSCC(=O)N[C@@H](Cc2ccc(O)cc2)C(=O)N(C)[C@@H](C)C(=O)N[C@@H](CCN)C(=O)N2CCC[C@H]2C(=O)N[C@@H](CO)C(=O)N[C@@H](CCC(=O)O)C(=O)N2C[C@H](O)C[C@H]2C(=O)N[C@@H](Cc2c[nH]c3ccccc23)C(=O)N[C@@H](CO)C(=O)N[C@@H](Cc2c[nH]c3ccccc23)C(=O)N1C` [Example 5130] ({CH2CO}-Y[NMeA][Dab]PSE[Hyp]WSW[NMeNle][NMeNle]RCG-NH2; thioether N-14), for which the IC50 in assay [1] (setting [2]) is 0.158 to 4.71 nM; at Human PD-L1/PD-1 it was 6.76 to 30.3 nM.

As to `CCCC[C@H]1C(=O)N[C@@H](CCCNC(=N)N)C(=O)NC(C(=O)NCC(N)=O)CSCC(=O)N[C@@H](Cc2ccc(O)cc2)C(=O)N(C)[C@@H](C)C(=O)N[C@@H](CC(N)=O)C(=O)N2CCC[C@H]2C(=O)N[C@@H](Cc2cnc[nH]2)C(=O)N[C@@H](CO)C(=O)N2CCC[C@H]2C(=O)N[C@@H](Cc2c[nH]c3ccccc23)C(=O)N[C@@H](CO)C(=O)N[C@@H](Cc2csc3ccccc23)C(=O)N(C)[C@@H](CCSC)C(=O)N1C` (stereo partly shown) [Example 9112] ({CH2CO}-Y[NMeA]NPHSPWS[Bta][NMeM][NMeNle]R[ξC]G-NH2; thioether N-14), the half-inhibitory concentration (IC50) was 4.78 to 72.9 nM in assay [1] (setting [2]) and 0.385 to 6.74 nM at Human PD-L1/PD-1.

`CCCC[C@H]1C(=O)N(C)[C@@H](CCCC)C(=O)N[C@@H](CCCN)C(=O)N[C@H](C(=O)NCC(N)=O)CSCC(=O)N[C@@H](Cc2ccc(O)cc2)C(=O)N(C)[C@@H](C)C(=O)N[C@@H](CC(N)=O)C(=O)N2CCC[C@H]2C(=O)N[C@@H](Cc2cnc[nH]2)C(=O)N[C@@H](CC(C)C)C(=O)N2C[C@H](O)C[C@H]2C(=O)N[C@@H](Cc2c[nH]c3ccccc23)C(=O)N[C@@H](CO)C(=O)N[C@@H](Cc2c[nH]c3ccccc23)C(=O)N1C` [Example 1123]: the half-inhibitory concentration (IC50) in assay [1] (setting [3]) was 0.158 to 4.71 nM; on Human PD-L1/PD-1 it was 0.385 to 6.74 nM.

As for `CCCC[C@H]1C(=O)N(C)CC(=O)N[C@@H](CC(=O)O)C(=O)N[C@@H](C(C)C)C(=O)N(C)[C@@H](Cc2ccccc2)C(=O)N[C@@H](Cc2ccc(O)cc2)C(=O)N(C)CC(=O)N[C@@H](Cc2c[nH]c3ccccc23)C(=O)N[C@@H](Cc2ccc(-c3ccccc3)cc2)C(=O)N[C@@H](CC(C)C)C(=O)N[C@H](C(=O)NCC(N)=O)CSCC(=O)N[C@@H](Cc2ccccc2)C(=O)N(C)[C@@H](Cc2ccccc2)C(=O)N1C` [Example 3547] ({CH2CO}-F[NMeF][NMeNle][Sar]DV[NMeF]Y[Sar]W[Bip]LCG-NH2; thioether N-13), the values for the half-inhibitory concentration (IC50) (in assay [1] (setting [2]); on Human PD-L1/PD-1) were greater than 74.3 nM and greater than 30.5 nM, respectively.

As for `CCCC[C@H]1C(=O)N(C)[C@@H](CCCC)C(=O)N[C@@H](CCCNC(=N)N)C(=O)N[C@H](C(=O)NCC(N)=O)CSCC(=O)N[C@@H](Cc2ccc(O)cc2)C(=O)N(C)[C@@H](C)C(=O)N[C@@H](CC(N)=O)C(=O)N2CCC[C@H]2C(=O)N[C@@H](CN)C(=O)N[C@@H](CC(C)C)C(=O)N2C[C@H](O)C[C@H]2C(=O)N[C@@H](Cc2c[nH]c3ccccc23)C(=O)N[C@@H](CCC(=O)O)C(=O)N[C@@H](Cc2c[nH]c3ccccc23)C(=O)N1C` [Example 5058] ({CH2CO}-Y[NMeA]NP[Dap]L[Hyp]WEW[NMeNle][NMeNle]RCG-NH2; thioether N-14), the IC50 lay within 4.78 to 72.9 nM in assay [1] (setting [2]) and 0.385 to 6.74 nM on Human PD-L1/PD-1.

In the case of `CCCC[C@H]1C(=O)N(C)[C@@H](CCCC)C(=O)N[C@@H](CCN)C(=O)N[C@H](C(=O)NCC(N)=O)CSCC(=O)N[C@@H](Cc2ccc(O)cc2)C(=O)N(C)[C@@H](C)C(=O)N[C@@H](CC(N)=O)C(=O)N2CCC[C@H]2C(=O)N[C@@H](Cc2cnc[nH]2)C(=O)N[C@@H](CCC(N)=O)C(=O)N2C[C@H](O)C[C@H]2C(=O)N[C@@H](Cc2c[nH]c3ccccc23)C(=O)N[C@@H](CCN)C(=O)N[C@@H](Cc2c[nH]c3ccccc23)C(=O)N1C` [Example 5043] ({CH2CO}-Y[NMeA]NPHQ[Hyp]W[Dab]W[NMeNle][NMeNle][Dab]CG-NH2; thioether N-14), the 50% inhibitory concentration (IC50) lay in the range of 0.158 to 4.71 nM in assay [1] (setting [2]) and 6.76 to 30.3 nM at Human PD-L1/PD-1.

In the case of `CCCC[C@H]1C(=O)N(C)[C@@H](CCCC)C(=O)N[C@@H](CCCNC(=N)N)C(=O)N[C@H](C(=O)NCC(N)=O)CSCC(=O)N[C@@H](Cc2ccccc2)C(=O)N(C)[C@@H](C)C(=O)N[C@@H](CC(N)=O)C(=O)N2CCC[C@H]2C(=O)N[C@@H](Cc2cnc[nH]2)C(=O)N[C@@H](C(C)C)C(=O)N(C)CC(=O)N[C@@H](Cc2c[nH]c3ccccc23)C(=O)N[C@@H](CO)C(=O)N[C@@H](Cc2c[nH]c3ccccc23)C(=O)N1C` [Example 6007] ({CH2CO}-F[NMeA]NPHV[Sar]WSW[NMeNle][NMeNle]RCG-NH2; thioether N-14), the 50% inhibitory concentration (IC50) was in the range of 4.78 to 72.9 nM in assay [1] (setting [2]) and 6.76 to 30.3 nM on Human PD-L1/PD-1.

For `CC(C)C[C@@H]1NC(=O)[C@H](Cc2cnc[nH]2)NC(=O)[C@@H]2CCCN2C(=O)[C@H](CC(N)=O)NC(=O)[C@H](C)N(C)C(=O)[C@H](Cc2ccccc2)NC(=O)CSC[C@@H](C(=O)NCC(N)=O)NC(=O)[C@H](CCCNC(=N)N)NC(=O)[C@H](C)N(C)C(=O)[C@H](CCNC(=O)C2CCC2)NC(=O)[C@H](Cc2c[nH]c3ccccc23)NC(=O)[C@H](CO)NC(=O)[C@H](Cc2c[nH]c3ccccc23)NC(=O)CN(C)C1=O` [Example 1034] ({CH2CO}-F[NMeA]NPHL[Sar]WSW[Dab](Cyclobutanecarbonyl)[NMeA]RCG-NH2; thioether N-14), the 50% inhibitory concentration (IC50) was greater than 74.3 nM in assay [1] (setting [3]) and greater than 30.5 nM at Human PD-L1/PD-1.
